Source: ChEMBL document CHEMBL1201862, “PubChem BioAssay data set” (2004)
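The compound was tested at five concentrations on cells cultured in 96-well plates, with a 48-hour exposure period. GI50 is the concentration that inhibits growth by half.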 Calls of active or inactive are those of the source. No stated cut-off is given here; in the data, active = GI50 up to about 1.1 µM and inactive = higher.

Legend:
Experiment in all cases: inhibition of tumour cell growth, NCI panel, 48 h
[1] = system: EKVX
[2] = system: HL-60
[3] = system: MDA-MB-231
[4] = system: MDA-N
[5] = system: MOLT-4
[6] = system: Malme-3M
[7] = system: NCI-H226
[8] = system: NCI-H23
[9] = system: NCI-H522
[10] = system: NCI/ADR-RES
[11] = system: OVCAR-8
[12] = system: RPMI-8226
[13] = system: RXF 393
[14] = system: SF-295
[15] = system: SK-MEL-28
[16] = system: SK-MEL-2
[17] = system: SNB-19
[18] = system: SNB-75
[19] = system: SR
[20] = system: UACC-62

Measured: GI50

COc1cccc(N(CN2C(=O)CCC2C(=O)O)C(C)=O)c1 (stereo not given)
inactive: [1] > 100 µM | [2] > 100 µM | [3] > 100 µM | [4] > 100 µM | [5] > 100 µM | [6] > 100 µM | [7] > 100 µM | [8] > 100 µM | [9] > 100 µM | [10] > 100 µM | [11] > 100 µM | [12] > 100 µM | [13] > 100 µM | [14] > 100 µM | [15] > 100 µM | [16] > 100 µM | [17] > 100 µM | [18] > 100 µM | [19] > 100 µM | [20] > 100 µM

O=c1cc(-c2ccccc2)oc2ccc(Cl)cc12 [6-CHLOROFLAVONE]
inactive: [1] 17.4 µM | [2] > 46.5 µM | [3] 18.1 µM | [4] > 41.4 µM | [5] > 74.6 µM | [6] 56.9 µM | [7] > 84.7 µM | [8] 49.9 µM | [9] 64.3 µM | [10] 57.4 µM | [11] > 86.5 µM | [12] > 73.5 µM | [13] 31.4 µM | [14] 44.2 µM | [15] > 65.6 µM | [16] > 84.7 µM | [17] 29.6 µM | [18] 26.8 µM | [19] 20.7 µM | [20] > 67.1 µM
